Measurements reported in US9932333B2, “Benzothiazole compound and medicine containing same” (JAPAN SCIENCE AND TECHNOLOGY AGENCY, priority 2014, dated 2018).
pKd: −log10 of the molar value.

Columns and labels:
[1] = molecular target: Aβ1-42 aggregated in advance (Homo sapiens, UniProt P05067); assay: Aβ affinity (Kd association curve from fluorescence intensity); type: binding; conditions: aggregated Aβ1-42 0.5 μM, phosphate buffer pH 7.4, room temperature 1 hour
Description: For compound (1a), the excitation wavelength was set to 460 nm, and the fluorescence wavelength was set to 515 nm. A Kd association curve was obtained from the fluorescence intensity using KaleidaGraph 4.5 (Synergy Software, Reading, Pa.).

amylin = molecular target: T1, amylin (Homo sapiens, UniProt P10997); assay: Oxidation reaction of amylin; type: biochemical; conditions: pre-incubation 0 h
T1 construct: amylin, a hormone essential for glycemic control
T1 sequence (P10997 34-70 limits assumed): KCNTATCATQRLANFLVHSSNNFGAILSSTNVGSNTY
Protocol: (§1) Then, the reaction was monitored with a mass spectrometer (MALDI-TOF MS) or LC/MS (ESI-Q).
The amino acid analysis of oxidized Aβ1-42 and oxidized amylin (carried out by Peptide Institute, Inc.) was conducted. The oxidized Aβ1-42 and the oxidized amylin were enzymatically digested with endopeptidase Lys-C and chymotrypsin, respectively, and the obtained digests were analyzed with a mass spectrometer (MALD-TOF MS) and LC/MS/MS (ESI-Q-TOF).

angiotensin IV = angiotensin IV (Homo sapiens, UniProt P01019); assay: Oxidation reaction of angiotensin IV (Example 3); type: biochemical; conditions: light irradiation 1.5 hours, neutral buffer, 37° C.
Description: as §1

methionine enkephalin = methionine enkephalin (Homo sapiens, UniProt P01210); assay: Oxidation reaction of methionine enkephalin (Example 3); type: biochemical; conditions: light irradiation 1.5 hours, neutral buffer, 37° C.
Description: as §1

Aβ1-42 aggregated in advance, sequence (P05067 672-713 limits assumed): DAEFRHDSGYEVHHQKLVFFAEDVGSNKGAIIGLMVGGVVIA

pKd [1] | oxygenation of angiotensin IV (angiotensin IV) | oxygenation of methionine enkephalin (methionine enkephalin) [%] | Structure (SMILES) | oxygenation of amylin in a monomeric state (amylin)
5.96 |  |  | C[n+]1c(-c2cc3c4c(c2)CCCN4CCC3)sc2cc(Br)ccc21 [compound (1a)] | 
 | approximately 40% | ~60 | Cc1cc2nc3c(=O)[nH]c(=O)nc-3n(C[C@H](O)[C@H](O)[C@H](O)CO)c2cc1C [riboflavin, reference compound] | high oxidative activity against monomeric amylin
